In patent US8293781B2, “Indole derivatives having cPLA2 inhibiting activity and applications and production methods of the same” (Daiichi Sankyo Company, Limited, priority 2007, dated 2012):
Counter-ions that a name gives are not always drawn.

What was measured:
[1] = test system: TPA-induced mouse dermatitis model; test: TPA-induced mouse dermatitis model (ear thickness); format: in vivo; conditions: 50 mg/kg orally 30 minutes before TPA, 6 hours after TPA, C57BL/6 mice
Description: Phorbol ester (TPA) was applied to the ear to elicite acute inflammation having ear edema as a main symptom. In the present test model, it is known that arachidonic acid metabolites, constituting various lipid mediators, are involved in inflammation. By this Experiment, it is possible to evaluate the anti-inflammatory action in vivo of anti-inflammatory drugs acting on the arachidonic acid cascade.
The Experiment was performed with reference to the method of Chang et al. (see Chang J., Eur J Pharmacol 142: 197, 1987). That is, the ear of female C57BL/6 mice (Charles River Japan) were painted with 20 μl of TPA in an acetone solution (concentration 50 μg/ml) to induce dermatitis at the ear. The ear thicknesses before application of TPA and 6 hours after application of TPA were measured using a dial gauge and the increase in ear thickness caused by inflammation was calculated. The test compound or the 0.5% hydroxypropyl cellulose solution as vehicle was administered orally to the mice 30 minutes before application of TPA. Note that the number of mice used in the test was made six per group.
Based on the measurement value, the action of each test compound in suppressing the increase in ear thickness due to application of TPA was evaluated.

[2] = test system: LTB4 production in rat mast cell like cell line RBL-2H3; test: Calcium ionophore-induced LTB4 production system using RBL-2H3; format: cell-based; conditions: 1 h, RBL-2H3, A23187 5 μM, one hour
Description: For the evaluation by LTB4 and Cys-LTs production inhibiting activity, the calcium ionophore-induced LTB4 and Cys-LTs production system using the rat mast cell like cell line RBL-2H3 with reference to the method of Ishiwara et al. (see Ishiwara M. et al., J Pharmacol Exp Ther 307: 583, 2003) was used. That is, rat mast cell like cell line RBL-2H3 cells were suspended in Dulbecco's modified Eagle's medium (Nacalai Tesque) containing 10% bovine fetal serum (BioWhittaker) and 10 μg/ml gentamycin (Invitrogen). The infiltrating cell suspension 200 μl containing 1×10^5 cells per well was inoculated to 96-well culture plate and cultured over night under conditions of 5% CO2 and 37° C. The culture supernatant was removed, then the test compound solution or solvent 50 μl was added. After 30 minutes preculture, calcium ionophore (A23187) was added to a final concentration of 5 μM to induce leukotriene production.
One hour after calcium ionophore stimulus, the culture supernatant was recovered and the amounts of LTB4 and Cys-LTs in the supernatant were measured using an EIA kit (made by Amersham). Based on the measurement values, the test compound concentrations suppressing 50% of the mediator production at the time of non-addition of a compound (IC50 value) were calculated.

[3] = test system: TXB2 production in whole blood; test: Calcium ionophore-induced TXB2 production system using whole blood; format: cell-based; conditions: Cavia porcellus, 0.25 h; Hartley guinea pig heparin blood diluted 2-fold, A23187 5 μM, 15 minutes
Description: For evaluation of the TXB2 production inhibiting activity, the calcium ionophore-induced TXB2 production system using whole blood with reference to the method of Alanko (see Alanko J., Prostaglandins 45: 193, 1993) was used. That is, heparin blood taken from Hartley guinea pigs was diluted 2-fold by an RPMI1640 medium (Nakalai Tesque) containing 10 μg/ml gentamycin (Invitrogen). The entire blood after dilution was inoculated in a 96-well culture plate in amounts of 200 μl per well, then the test compound solution or solvent was added. After 30 minutes preculture, calcium ionophore (A23187) was added to a final concentration of 5 μM to induce TXB2 production. 15 minutes after stimulus, the supernatant was recovered by centrifugal separation and the amount of TXB2 in the supernatant was measured using an EIA kit (Amersham).
Based on the measurement value, the test compound concentration suppressing 50% of the TXB2 production at the time of non-addition of a compound (IC50 value) was calculated.

[4] = test system: PGD2 production in rat mast cell like cell line RBL-2H3; test: Antigen-induced PGD2 production system using RBL-2H3 sensitized by DNP specific IgE; format: cell-based; conditions: 0.5 h, RBL-2H3, anti-DNP-IgE sensitized, antigen 10 μg/ml, 30 minutes
Description: To evaluate the PGD2 production inhibiting activity, the antigen-induced PGD2 production system using rat mast cell like cell line RBL-2H3 sensitized by a dinitrophenol (DNP) specific IgE with reference to the method of Yamashita et al. (see Yamashita, M. et al., Br J Pharmacol 129: 367, 2000) was used. That is, rat mast cell like cell line RBL-2H3 cells were suspended in a Dulbecco's modified Eagle's medium (Nacalai Tesque) containing 10% bovine fetal serum (BioWhittaker) and 10 μg/ml gentamycin (Invitrogen). The infiltrating cell suspension 200 μl containing 1×10^5 cells per well was inoculated to 96-well culture plate and cultured over night under conditions of 5% CO2 and 37° C. The culture supernatant was removed, then the suspension was cultured for 2 hours in the presence of an anti-DNP-IgE antibody (1 μg/ml) for 2 hours to sensitize it. After the sensitization, the supernatant was removed and the test compound solution or solvent was added. The resultant product was precultured for 30 minutes, then 10 μg/ml of antigen (DNP-human serum albumin conjugate) was added to elicite PGD2 production.
30 minutes after antigen stimulus, the culture supernatant was recovered and the amount of PGD2 in the supernatant was measured using an EIA kit (made by Cayman). Based on the measurement value, the test compound concentration (IC50 value) suppressing the amount of PGD2 production at the time of nonaddition of the compound by 50% was calculated.

[5] = test system: PGE2 production in mouse peritoneal exudate cells; test: LPS-induced PGE2 production system using mouse peritoneal exudate cells; format: cell-based; conditions: LPS 10 μg/ml, 6 hours
Description: For evaluation of the PGE2 production inhibiting activity, the lipopolysaccharide (LPS)-induced PGE2 production system using mouse peritoneal exudate cells with reference to the method of Kim et al. (see Kim, Y K et al., Biol Pharm Bull 25: 472, 2002) was used. That is, 2 ml of thioglycolate solution (made by Sigma, Brewer's Thioglycorate medium) per mice were intraperitoneally administered to 8-week old female C3H/HeN mice (Charles River Japan). After 4 days, a phosphate buffer saline (PBS) 5 ml was used to wash the abdominal cavity and the infiltrating cells were recovered. The recovered cells were suspended in a predetermined concentration in an RPMI1640 medium (Nacalai Tesque) containing 10% bovine fetal serum (BioWhittaker) and 10 μg/ml gentamycin (Invitrogen).
The infiltrating cell suspension 100 μl containing 2×10^5 cells per well was inoculated in a 96-well culture plate, then the test compound solution or solvent 50 μl was added. Under conditions of 5% CO2 and 37° C., this was precultured for 15 minutes, then LPS (made by Sigma: L-4524) solution 50 μl (final concentration of LPS of 10 μg/ml) was added, and the mixture was cultured for a further 6 hours. After the end of the culture, the culture supernatant was recovered and the PGE2 concentration in the supernatant was measured using an EIA kit (made by Amersham). Based on the measurement value, the test compound concentration suppressing 50% of the PGE2 production at the time of non-addition of a compound (IC50 value) was calculated.

Row | IC50 [2] [nM] | IC50 [3] [nM] | IC50 [5] [nM] | Compound | Suppression rate of increase in ear thickness [1] [%] | IC50 [4] [nM]
1 | 380 | 1370 | 850 | O=C(O)CCc1ccc2c(c1)c(CCc1ccccc1)cn2-c1ccc(OC(F)F)cc1 [Example 190, 3-{1-[4-(difluoromethoxy)phenyl]-3-(2-phenylethyl)-1H-indol-5-yl}propanoic acid 2-amino-2-(hydroxymethyl)propane-1,3-diol salt (1:1)] | 27.6 | 1110
2 | 770 | 1530 | 540 | O=C(O)CCc1ccc2c(c1)c(CCc1ccccc1)cn2-c1ccc(O)cc1 [Example 126, 3-[1-(4-hydroxyphenyl)-3-(2-phenylethyl)-1H-indol-5-yl]propanoic acid] | 27.6 | 1210
3 | 500 | 2020 | 1700 | COCc1ccc(-n2cc(CCc3ccccc3)c3cc(CCC(=O)O)ccc32)cc1 [Example 217, 3-{1-[4-(methoxymethyl)phenyl]-3-(2-phenylethyl)-1H-indol-5-yl}propanoic acid 2-amino-2-(hydroxymethyl)propane-1,3-diol salt (1:1)] | 22.8 | 1120
4 | 260 | 5140 | 280 | O=C(O)CCc1ccc2c(c1)c(CCc1ccccc1)cn2-c1ccc(F)cc1 [Example 187, 3-[1-(4-fluorophenyl)-3-(2-phenylethyl)-1H-indol-5-yl]propanoic acid] | 25.4 | 430
5 | 20 | 580 | 800 | O=C(O)CCc1ccc2c(c1)c(CCc1ccccc1)cn2-c1ccc(OCCO)cc1 [Example 229, 3-{1-[4-(2-hydroxyethoxy)phenyl]-3-(2-phenylethyl)-1H-indol-5-yl}propanoic acid 2-amino-2-(hydroxymethyl)propane-1,3-diol salt (1:1)] | 23.9 | 890

Row | Compound | IC50 [2] [nM] | IC50 [3] [nM] | IC50 [5] [nM] | Suppression rate of increase in ear thickness [1] [%] | IC50 [4] [nM]
6 | O=C(O)CCc1ccc2c(c1)c(CCc1ccccc1)cn2-c1ccc(Oc2ccccc2)cc1 [Example 231, 3-[1-(4-phenoxyphenyl)-3-(2-phenylethyl)-1H-indol-5-yl]propanoic acid 2-amino-2-(hydroxymethyl)propane-1,3-diol salt (1:1)] | 180 | 540 | 500 | 30.4 | 760
